US20160045463A1, “USE OF METALLOPROTEASE INHIBITORS IN THE TREATMENT OF POLYCYSTIC LIVER DISEASES” (UNIVERSIDAD DE SALAMANCA, priority 2012, published 2016)

Columns and labels:
PCK rats = experiment: Treatment of PCK rats with Marimastat for 8 weeks; type: in vivo, rat
Text: PCK rats, sold by the Charles River company, is a well characterised animal model of ARPKD and used for the study of liver and kidney cystogenesis (Mason S B, et al. The Anatomical Record: Advances in Integrative Anatomy and Evolutionary Biology 2010; 293:1279-1288). This colony of animals has a spontaneous orthologous mutation in the PKHD1 gene that causes them to develop liver and kidney symptoms similar to those of ARPKD patients. Thus, after 4 weeks of life, PCK rats, irrespective of sex, start to develop liver and kidney cystogenesis and fibrosis, which are clearly shown at 16 weeks of life. In addition, these animals also show an increase in serum values of creatinine, bilirubin, cholesterol, triglycerides and proteinuria (Mason S B, et al. The Anatomical Record: Advances in Integrative Anatomy and Evolutionary Biology 2010; 293:1279-1288). PCK rats were maintained on standard diet for the whole assay and all in vivo experimental procedures were approved by the Ethics Committee of the Instituto Biodonostia.
The group of control rats received the vehicle solution (i.e. distilled water) orally, 2 times a day (every ˜8-12 hours) and using the tube. Various biochemical markers were monitored in serum at the start and end of the study. Blood was extracted (500 μl through the tail vein) after anaesthetising the animal with isoflurane (inhalation anaesthesia, 2.5% in oxygen, with a flow rate of 0.3 L/min). After centrifuging the blood, various biochemical parameters were determined in the serum: alkaline phosphatase (ALP), transaminases (ALT, AST), bilirubin, biliary acids, creatinine, cholesterol, triglycerides and total proteins using a COBAS Integra400 Plus 174 analyser.
After sacrificing the animals, the liver and kidney were removed and weighed; next both types of tissue were sectioned with a scalpel and fixed with a solution of 10% formaldehyde, to be later included in paraffin. Slices of 5 μm thickness were made of each sample and stained with hematoxylin-eosin or picrosirius red.
The aim of hematoxylin-eosin staining is the determination of histological morphology. Thus the slices were incubated for 4 minutes with Harris hematoxylin (Merck) at room temperature. After incubation, the samples were washed with distilled water and stained with eosin (Merck) for 1 minute at room temperature. Next, the tissue slices were washed in running water for 5 minutes, dehydrated by immersion in solutions of increasing ethanol concentration (70%, 96%, 100% for 1 minute each) and finally incubated with xylol for 5 minutes. The samples were mounted with DePeX (Sigma) mounting medium for subsequent viewing in an optical microscope (Nikon Eclipse E800).
The purpose of picrosirius red staining is the determination of extracellular collagen in the tissue. When hydration was completed, the slices were stained with 0.2% phosphomolybdic acid (Panreac Química) for 2 minutes and washed with distilled water. Next, the samples were incubated with a solution of 0.1% picrosirius red f3B (Gibco) for 3 hours. Finally the samples were washed with a solution of 0.01 N HCl for 2 minutes; the tissue was then dehydrated and mounted as described in the previous section.
Additionally, the level of expression of various profibrotic hepatic markers [collagen 1a1 (Col1a1), beta transforming growth factor (TGFbeta), alpha actin of smooth muscle (alpha-Sma) and the growth factor of connective tissue (Ctgf)] and proinflammatory markers [IL-6, IL CXCL1 and IL1beta)] were analysed by RT-PCR in liver samples of control and PCK rats.

normal rats = experiment: Normal rats treated with Marimastat orally for 1 week; type: in vivo, rat; details: oral, same dose
Protocol: The various biochemical and histological markers listed above were also analysed. […] There were also no changes in the mean body weight of the animals.

[1] = 0.2856 mg/kg/day; patients with colorectal cancer; cited from earlier work
[2] = cited from earlier work
[3] = at the time of sacrifice, n = 9
[4] = serum, at the time of sacrifice, n = 9

WEIGHT Left kidney (PCK rats; [3]): 2.40 ± 0.19
WEIGHT Liver (PCK rats; [3]): 26.17 ± 2.98
WEIGHT Rat (PCK rats; [3]): 497 ± 12.24
WEIGHT Right kidney (PCK rats; [3]): 2.36 ± 0.17
serum levels of biochemical markers and biliary flow (PCK rats; at the time of sacrifice, treated vs control, Table 5): no difference
Albumin (PCK rats; [4]): 13.78 ± 0.59 g/L
Alkaline phosphatase (PCK rats; [4]): 57.00 ± 5.01 U/L
Cholesterol (PCK rats; [4]): 76.56 ± 3.93 mg/dL
Creatinine (PCK rats; [4]): 0.36 ± 0.02 mg/dL
Glucose (PCK rats; [4]): 137.89 ± 7.25 mg/dL
HDL (PCK rats; [4]): 31.11 ± 3.06 mg/dL
LDH (PCK rats; [4]): 15192.33 ± 356.84 U/L
LDL (PCK rats; [4]): 33.38 ± 1.61 mg/dL
Total bilirubin (PCK rats; [4]): 0.16 ± 0.05 mg/dL
Total protein (PCK rats; [4]): 3.11 ± 0.12 g/dL
Triglycerides (PCK rats; [4]): 60.33 ± 3.97 mg/dL
Urea (PCK rats; [4]): 20.33 ± 0.78 mg/dL
histology of the liver or the kidney (normal rats): did not affect
serum levels of biochemical markers (normal rats): did not affect
Compound: CNC(=O)[C@@H](NC(=O)[C@H](CC(C)C)[C@H](O)C(=O)NO)C(C)(C)C [Marimastat, N-[2,2-dimethyl-1-(methylcarbamoyl)propyl]-2-[hydroxy-(hydroxycarbamoyl)methyl]-4-methyl-pentanamide]
kidney cystogenesis (PCK rats; 8 weeks, FIG. 25): not affected
cholangiocyte marker Ck19 expression at protein level (Western blot), hepatic samples (PCK rats; 8 weeks, p<0.001, FIG. 27A): down regulation
collagen 1a1 (Col1a1) mRNA expression, hepatic samples (PCK rats; 8 weeks, p<0.05, FIG. 27B): down regulation
mRNA levels of CXCL1 in liver samples (PCK rats; 8 weeks, p=0.08, FIG. 28B): almost statistically significant down regulation
mRNA levels of IL6 in liver samples (PCK rats; 8 weeks, p=0.1, FIG. 28A): almost statistically significant down regulation
collagen deposition in liver (picrosirius red) (PCK rats; 8 weeks, vs control PCK rats, FIG. 26): less collagen deposition
liver cystogenesis (area of intrahepatic biliary cysts) (PCK rats; oral 0.2856 mg/kg/day, 8 weeks, vs control PCK rats, p<0.05, FIG. 24): reduction
ALT (PCK rats; [4]): 138.22 ± 2.66 U/L
AST (PCK rats; [4]): 755.56 ± 24.76 U/L
mean body weight of the animals (normal rats): no changes
toxicity at dose used in clinical trials [1]: does not cause toxicity
oral bioavailability ([2]; compared with Batimastat): better oral bioavailability
toxicity ([2]; compared with Batimastat): less toxicity
elimination half-life ([2]; in vivo): 8 to 10 h
